The record followed here is ChEMBL document CHEMBL4619826, “Insights into the Molecular Determinants Involved in Urocontrin and Urocontrin A Action” (ACS Med Chem Lett, 2020).

The structures appear in SMILES notation.

The subject of assay [1] is Thoracic aorta. In words: Contractile activity in Sprague-Dawley rat thoracic aorta assessed as ratio of KCl-induced contraction to human U2-induced contraction in aortic ring at 3 x 10^-6 M (reference value: 101 +/- 4 %). In kind it is functional.
For assay [2], the system named is Thoracic aorta. Put plainly: Contractile activity in Sprague-Dawley rat thoracic aorta assessed as contraction in aortic ring preincubated ofr 30 mins followed by URP or human U2-stimulation. The class given is functional, tissue-based.
Assay [3] has as its system Thoracic aorta. Put plainly: Contractile activity in Sprague-Dawley rat thoracic aorta assessed as ratio of KCl-induced contraction to human U2-induced contraction in aortic ring at 10^-11 to 3 x 10^-6 M relative to control. In kind it is functional.
For assay [4], the target named is T1, Urotensin-2 receptor (Homo sapiens, UniProt Q9UKP6).
T1 sequence (Q9UKP6 whole entry): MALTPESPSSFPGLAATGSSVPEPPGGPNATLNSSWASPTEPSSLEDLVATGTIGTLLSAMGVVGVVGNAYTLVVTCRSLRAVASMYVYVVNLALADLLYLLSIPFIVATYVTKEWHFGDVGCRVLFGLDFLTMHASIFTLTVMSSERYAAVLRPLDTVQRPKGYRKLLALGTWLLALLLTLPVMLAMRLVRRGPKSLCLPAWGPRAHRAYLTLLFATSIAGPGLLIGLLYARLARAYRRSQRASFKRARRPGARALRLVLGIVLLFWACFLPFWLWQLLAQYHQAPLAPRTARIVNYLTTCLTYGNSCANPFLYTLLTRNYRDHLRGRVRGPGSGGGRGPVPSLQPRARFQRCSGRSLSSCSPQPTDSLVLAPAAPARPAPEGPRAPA
Put plainly: Antagonist activity at human UT receptor expressed in HEK293 cells using Na [125I] incubated for 2 hrs by gamma counting method. In kind it is cell-based.

In assay [5] the test system is Thoracic aorta. In words: Contractile activity in Sprague-Dawley rat thoracic aorta assessed as ratio of KCl-induced contraction to URP-induced contraction in aortic ring at 10^-6 M (reference value: 107 +/- 3 %). In kind it is functional.
Assay [6] deals with Thoracic aorta. Put plainly: Contractile activity in Sprague-Dawley rat thoracic aorta assessed as contraction in aortic ring preincubated ofr 30 mins followed by URP-stimulation (reference value: 8.16 +/- 0.08). In kind it is functional, tissue-based.
Assay [7] concerns Thoracic aorta. In words: Contractile activity in Sprague-Dawley rat thoracic aorta assessed as contraction in aortic ring preincubated ofr 30 mins followed by human U2-stimulation (reference value: 8.59 +/- 0.12). In kind it is functional, tissue-based.
In assay [8] the test system is Thoracic aorta. Put plainly: Contractile activity in Sprague-Dawley rat thoracic aorta assessed as contraction in aortic ring at 10^-5 M relative to control. The class given is functional.
Assay [9] has as its system Thoracic aorta. In words: Contractile activity in Sprague-Dawley rat thoracic aorta assessed as ratio of KCl-induced contraction to URP-induced contraction in aortic ring at 10^-5 M (reference value: 107 +/- 3 %). The class given is functional.
Assay [10] concerns Thoracic aorta. In words: Contractile activity in Sprague-Dawley rat thoracic aorta assessed as ratio of KCl-induced contraction to URP-induced contraction in aortic ring at 3 x 10^-6 M (reference value: 107 +/- 3 %). The class given is functional.
Assay [11] has as its system Thoracic aorta. Put plainly: Contractile activity in Sprague-Dawley rat thoracic aorta assessed as ratio of KCl-induced contraction to human U2-induced contraction in aortic ring at 10^-6 M (reference value: 101 +/- 4 %). In kind it is functional.
Assay [12] deals with Thoracic aorta. Put plainly: Contractile activity in Sprague-Dawley rat thoracic aorta assessed as ratio of KCl-induced contraction to human U2-induced contraction in aortic ring at 10^-5 M (reference value: 101 +/- 4 %). The class given is functional.

Turning to `CC(C)[C@H](NC(=O)[C@@H]1CSSC[C@H](NC(=O)[C@H](C)N)C(=O)N[C@@H](Cc2ccccc2)C(=O)N[C@@H](Cc2ccc(OCc3ccccc3)cc2)C(=O)N[C@@H](CCCCN)C(=O)N[C@@H](Cc2ccc(O)cc2)C(=O)N1)C(=O)O`, the Emax (commonly the greatest response seen or fitted, relative to the assay's reference) at 3 µM in assay [1] was determined as 80%. The EC50 (in general, the concentration that produces a half-maximal response) in [2] was over 3160 nM.

Turning to `CC(C)[C@H](NC(=O)[C@@H]1CSSC[C@H](NC(=O)[C@H](C)N)C(=O)NC(Cc2ccccc2)C(=O)N[C@H](Cc2ccc(I)cc2)C(=O)N[C@@H](CCCCN)C(=O)N[C@@H](Cc2ccc(O)cc2)C(=O)N1)C(=O)O` (stereo in doubt), in assay [3], the maximal effect (Emax) was 114%. Besides, half-maximal inhibition in assay [4] (IC50) was put at 2.45 nM. The half-maximal effective concentration (EC50) in assay [2] is 28.8 nM.

As for `CC(C)[C@H](NC(=O)[C@@H]1CSSC[C@H](NC(=O)[C@H](C)N)C(=O)N[C@@H](Cc2ccccc2)C(=O)N[C@H](Cc2ccc(-c3ccccc3)cc2)C(=O)N[C@@H](CCCCN)C(=O)N[C@@H](Cc2ccc(O)cc2)C(=O)N1)C(=O)O`, in assay [3], the maximum response (Emax) is 97%. Moreover, in assay [4], the IC50 (in general, the point on the concentration scale where inhibition reaches its midpoint) was 3.16 nM. The EC50 in assay [2] was 47.9 nM.

For `CC(C)[C@H](NC(=O)[C@@H]1CSSC[C@H](NC(=O)[C@H](C)N)C(=O)N[C@@H](Cc2ccccc2)C(=O)N[C@@H](Cc2c[nH]c3ccccc23)C(=O)N[C@@H](CCCCN)C(=O)N[C@@H](Cc2ccc(O)cc2)C(=O)N1)C(=O)O`, the Emax in assay [3] was determined as 107%. This compound also showed an IC50 in assay [4] of 5.13 nM. In addition, the concentration giving a half-maximal response (EC50) in assay [2] is 6.92 nM.

Regarding `CC(C)[C@H](NC(=O)[C@@H]1CSSC[C@H](NC(=O)[C@H](C)N)C(=O)N[C@@H](Cc2ccccc2)C(=O)N[C@@H](Cc2ccc(-c3ccncc3)cc2)C(=O)N[C@@H](CCCCN)C(=O)N[C@@H](Cc2ccc(O)cc2)C(=O)N1)C(=O)O`, the values for the Emax at 1 µM in assay [5] and in [11] were 96% and 70%, respectively. Also, the maximal response (Emax) at 3 µM in [1] is 5 to 25%; in assay [10], 94%. For the same compound, the EC50 is 2.95 to 6.46 nM in assay [6], 1.41 to 4.47 nM in assay [7] and over 3160 nM in assay [2]. Also, the maximum response (Emax) at 10 µM worked out at 9% in assay [8] and 92% in [9]. For the same compound, the IC50 in assay [4] is 155 nM.

In the case of `CC(C)[C@H](NC(=O)[C@@H]1CSSC[C@H](NC(=O)[C@H](C)N)C(=O)N[C@@H](Cc2ccccc2)C(=O)N[C@H](Cc2ccc(C#Cc3ccccc3)cc2)C(=O)N[C@@H](CCCCN)C(=O)N[C@@H](Cc2ccc(O)cc2)C(=O)N1)C(=O)O`, the maximal effect (Emax) in assay [3] was 99%. For the same compound, in assay [4], 12 nM corresponded to half-maximal inhibition (IC50). Moreover, the EC50 in assay [2] is 28.2 nM.

For `CC(C)[C@H](NC(=O)[C@@H]1CSSC[C@H](NC(=O)[C@H](C)N)C(=O)N[C@@H](Cc2ccccc2)C(=O)N[C@@H](Cc2ccc(-c3cccnc3)cc2)C(=O)N[C@@H](CCCCN)C(=O)N[C@@H](Cc2ccc(O)cc2)C(=O)N1)C(=O)O`, the maximum response (Emax) at 1 µM in [5] was found to be 102%; in [11], 94%. Also, the Emax at 3 µM in [1] is 24%. Further, the EC50 in [6] was 8.51 nM; in [7] it was 2.09 nM; in assay [2] it was over 3160 nM. For the same compound, the IC50 in [4] was 102 nM.

Regarding `CC(C)[C@H](NC(=O)[C@@H]1CSSC[C@H](NC(=O)[C@H](C)N)C(=O)N[C@@H](Cc2ccccc2)C(=O)N[C@@H](Cc2ccc(-c3ccsc3)cc2)C(=O)N[C@@H](CCCCN)C(=O)N[C@@H](Cc2ccc(O)cc2)C(=O)N1)C(=O)O`, the results for the Emax at 1 µM in [5] and in assay [11] were 115% and 105%, respectively. Moreover, the maximal response (Emax) at 3 µM in assay [1] worked out at 20%. Also, the EC50 in [6] was 12.9 nM; in assay [7] it was 7.59 nM; in assay [2], over 3160 nM. This compound gave an IC50 in assay [4] of 36.3 nM.

As for `CC(C)[C@H](NC(=O)[C@@H]1CSSC[C@H](NC(=O)[C@H](C)N)C(=O)N[C@@H](Cc2ccccc2)C(=O)N[C@@H](Cc2ccc(-c3ccc(-c4ccccc4)cc3)cc2)C(=O)N[C@@H](CCCCN)C(=O)N[C@@H](Cc2ccc(O)cc2)C(=O)N1)C(=O)O`, the maximal response (Emax) at 1 µM in assay [5] is 99%; in assay [11] it was 79%. For the same compound, the figures for the Emax at 3 µM in [1] and in assay [10] were 65% and 95%, respectively. In addition, the maximal response (Emax) in assay [3] stood at 9%. In addition, the EC50 was 6.61 to 12 nM in assay [6], 2.24 to 3.39 nM in assay [7] and 7.76 nM in [2]. Further, the values for the Emax at 10 µM in [9] and in [12] were 92% and 55%, respectively. The compound further showed an IC50 in assay [4] of 135 nM.
